Some results are limits rather than exact numbers.

The test addresses T1, ERR1 (also known as ERR-α or ERR-1) (Homo sapiens, UniProt P11474).
T1 sequence (P11474 193-421 limits assumed): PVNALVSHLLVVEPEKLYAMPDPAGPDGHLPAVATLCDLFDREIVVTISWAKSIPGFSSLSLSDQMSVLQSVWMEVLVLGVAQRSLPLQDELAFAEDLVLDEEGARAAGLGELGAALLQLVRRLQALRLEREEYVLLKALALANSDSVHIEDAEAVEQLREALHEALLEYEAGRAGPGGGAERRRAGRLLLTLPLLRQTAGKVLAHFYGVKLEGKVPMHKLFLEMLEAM
Kind of test: TR-FRET assay (disruption of co-activator peptide binding). Type of test: biochemical. The following applies: 6His-tagged ERR1 LBD, GST-hSRC2 co-activator polypeptide; average of 3 independent experiments. The procedure:
Time-Resolved Fluorescence Resonance Energy Transfer (TR-FRET) experiments were performed to examine the functional response of ERR1 (also known as ERR-α or ERR-1) ligands. The TR-FRET assay described herein relied on the conformation of ERR1 for binding to a co-activator peptide: when a test compound binds to ERR1 and alters its conformation, it can disrupt the binding of the co-activator peptide. The components of this homogeneous secondary assay included: the ^6His-tagged-ERR1LBD, a GST-labeled-hSRC2 co-activator polypeptide and a fluorescent donor/acceptor pair from CIS bio international htrf/bioassays (Bedford, Mass.) using both an α-GST Europium Cryptate (Eu) label and an α^6His-XL665 (allophycocyanin) fluorophore.
For TR-FRET measurements, the reaction was buffered in 25 mM Tris pH 8, 2.5 mM Hepes, 20 mM KCl, 1 mM DTT, and 0.05 mg/mL BSA (-lipids). The final concentrations of reagents were 6 nM of ERR1LBD, 6 nM GST-SRC-2 peptide, 30 nM Eu cryptate, and 7.5 nM XL665. Reactions were allowed to reach equilibrium at 25° C. for 4-18 hours before collecting data on the Analyst from LJL Biosystems (Molecular Devices Sunnyvale, Calif.). As a time-resolved method, the samples were excited at […] and emission was collected for 1 ms at both 615 and 665 nm with delays of 400 and 75 μs, respectively. Dose response curves were fitted using a hyperbolic equation and the data reported is the average of 3 independent experiments.
(In general: In TR-FRET formats the signal depends on donor and acceptor labels being close together.)

Consider `CN[C@H]1CCN(C2=NC(=O)/C(=C/c3ccc4c(cnn4Cc4ccc(Cl)cc4C(F)(F)F)c3)S2)C1` (stereo in doubt) [Example 115, 5-[1-(4-Chloro-2-trifluoromethyl-benzyl)-1H-indazol-5-ylmethylene]-2-(3-methylamino-pyrrolidin-1-yl)-thiazol-4-one], for which the EC50 worked out at 8.4 nM.
Turning to `O=C1N=C(N2CC[C@H](NC(=O)C(F)(F)F)C2)S/C1=C\c1ccc2c(cnn2Cc2ccc(Cl)cc2C(F)(F)F)c1` (stereo in doubt) [Example 116, N-(1-{5-[1-(4-Chloro-2-trifluoromethyl-benzyl)-1H-indazol-5-ylmethylene]-4-oxo-4,5-dihydro-thiazol-2-yl}-pyrrolidin-3-yl)-2,2,2-trifluoro-acetamide], a half-maximal response (EC50) required 11 nM.
Under `CC[C@H]1CN(C2=NC(=O)/C(=C/c3ccc4c(cnn4Cc4ccc(Cl)cc4C(F)(F)F)c3)S2)CCN1` (stereo in doubt) [Example 123, 5-[1-(4-Chloro-2-trifluoromethyl-benzyl)-1H-indazol-5-ylmethylene]-2-(3-ethyl-piperazin-1-yl)-thiazol-4-one] stands 5 nM; under `CN1CCN(C2=NC(=O)/C(=C/c3ccc4c(cnn4Cc4ccc(C(F)(F)F)cc4C(F)(F)F)c3)S2)CC1` [Compound 2, 5-[1-(2,4-Bis-trifluoromethyl-benzyl)-1H-indazol-5-ylmethylene]-2-(4-methyl-piperazin-1-yl)-thiazol-4-one], 7.2 nM.
Under `O=C1N=C(N2CCOCC2)S/C1=C\c1ccc2c(cnn2Cc2ccc(C(F)(F)F)cc2C(F)(F)F)c1` [Compound 3, 5-[1-(2,4-Bis-trifluoromethyl-benzyl)-1H-indazol-5-ylmethylene]-2-morpholin-4-yl-thiazol-4-one] stands 21 nM.
Under `O=C1N=C(N2CCN(CCO)CC2)S/C1=C\c1ccc2c(cnn2Cc2ccc(F)cc2C(F)(F)F)c1` [Compound 4, 5-[1-(4-Fluoro-2-trifluoromethyl-benzyl)-1H-indazol-5-ylmethylene]-2-[4-(2-hydroxy-ethyl)-piperazin-1-yl]-thiazol-4-one] stands 92 nM; under `CC(=O)N1CCN(C2=NC(=O)/C(=C/c3ccc4c(cnn4Cc4ccc(F)cc4C(F)(F)F)c3)S2)CC1` [Compound 5, 2-(4-Acetyl-piperazin-1-yl)-5-[1-(4-fluoro-2-trifluoromethyl-benzyl)-1H-indazol-5-ylmethylene]-thiazol-4-one], 42 nM; under `O=C1N=C(N2CCN(CCO)CC2)S/C1=C\c1ccc2c(cnn2Cc2ccc(C(F)(F)F)cc2C(F)(F)F)c1` [Compound 6, 5-[1-(2,4-Bis-trifluoromethyl-benzyl)-1H-indazol-5-ylmethylene]-2-[4-(2-hydroxy-ethyl)-piperazin-1-yl]-thiazol-4-one], 9 nM.
On to `O=C1N=C(N2CCNCC2)S/C1=C\c1ccc2c(cnn2Cc2ccc(C(F)(F)F)cc2C(F)(F)F)c1` [Compound 7, 5-[1-(2,4-Bis-trifluoromethyl-benzyl)-1H-indazol-5-ylmethylene]-2-piperazin-1-yl-thiazol-4-one], for which the EC50 turned out to be 38 nM.
`CN1CCN(C2=NC(=O)/C(=C/c3ccc4c(cnn4Cc4ccc(Cl)cc4C(F)(F)F)c3)S2)CC1` [Compound 8, 5-[1-(4-Chloro-2-trifluoromethyl-benzyl)-1H-indazol-5-ylmethylene]-2-(4-methyl-piperazin-1-yl)-thiazol-4-one] came in with a 50% effective concentration (EC50) of 7 nM.
The result for `N#Cc1ccc(Cn2ncc3cc(/C=C4\SC(N5CCN(CCO)CC5)=NC4=O)ccc32)c(C(F)(F)F)c1` [Compound 9, 4-(5-{2-[4-(2-Hydroxy-ethyl)-piperazin-1-yl]-4-oxo-4H-thiazol-5-ylidenemethyl}-indazol-1-ylmethyl)-3-trifluoromethyl-benzonitrile] reads 57.5 nM; that for `CN1CCN(C2=NC(=O)/C(=C/c3ccc4c(cnn4Cc4ccc(C#N)cc4C(F)(F)F)c3)S2)CC1` [Compound 10, 4-{5-[2-(4-Methyl-piperazin-1-yl)-4-oxo-4H-thiazol-5-ylidenemethyl]-indazol-1-ylmethyl}-3-trifluoromethyl-benzonitrile], 199 nM; that for `O=C1N=C(N2C[C@H](O)C[C@H]2C(=O)O)S/C1=C\c1ccc2c(cnn2Cc2ccc(Cl)cc2C(F)(F)F)c1` [Compound 11, 1-{5-[1-(4-Chloro-2-trifluoromethyl-benzyl)-1H-indazol-5-ylmethylene]-4-oxo-4,5-dihydro-thiazol-2-yl}-4-(R)-hydroxy-pyrrolidine-2-(S)-carboxylic acid], 57 nM.
Under `O=C1CN(C2=NC(=O)/C(=C/c3ccc4c(cnn4Cc4ccc(Cl)cc4C(F)(F)F)c3)S2)CCN1` [Compound 12, 4-{5-[1-(4-Chloro-2-trifluoromethyl-benzyl)-1H-indazol-5-ylmethylene]-4-oxo-4,5-dihydro-thiazol-2-yl}-piperazin-2-one] stands 4.6 nM; under `O=C1N=C(N2CCN(CCO)CC2)S/C1=C\c1ccc2c(cnn2Cc2ccc(Cl)cc2C(F)(F)F)c1` [Compound 13, 5-[1-(4-Chloro-2-trifluoromethyl-benzyl)-1H-indazol-5-ylmethylene]-2-[4-(2-hydroxy-ethyl)piperazin-1-yl]-thiazol-4-one], 4.7 nM; under `O=C1N=C(N2CCN(CCO)CC2)S/C1=C\c1ccc2c(cnn2Cc2ccc(Cl)cc2Cl)c1` [Compound 14, 5-[1-(2,4-Dichloro-benzyl)-1H-indazol-5-ylmethylene]-2-[4-(2-hydroxy-ethyl)-piperazin-1-yl]thiazol-4-one], 68 nM.
Compound `CN1CCN(C2=NC(=O)/C(=C/c3ccc4c(cnn4Cc4ccc(S(C)(=O)=O)cc4C(F)(F)F)c3)S2)CC1` [Compound 15, 5-[1-(4-Methanesulfonyl-2-trifluoromethyl-benzyl)-1H-indazol-5-ylmethylene]-2-(4-methyl-piperazin-1-yl)-thiazol-4-one] registered a 50% effective concentration (EC50) of 530 nM.
The result for `CS(=O)(=O)c1ccc(Cn2ncc3cc(/C=C4\SC(N5CCN(CCO)CC5)=NC4=O)ccc32)c(C(F)(F)F)c1` [Compound 16, 2-[4-(2-Hydroxy-ethyl)-piperazin-1-yl]-5-[1-(4-methanesulfonyl-2-trifluoromethyl-benzyl)-1H-indazol-5-ylmethylene]-thiazol-4-one] reads 450 nM; that for `CN1CCN(C2=NC(=O)/C(=C/c3ccc4c(cnn4Cc4ccc(S(C)(=O)=O)cc4Cl)c3)S2)CC1` [Compound 17, 5-[1-(2-Chloro-4-methanesulfonyl-benzyl)-1H-indazol-5-ylmethylene]-2-(4-methyl-piperazin-1-yl)-thiazol-4-one], > 4000 nM; that for `CS(=O)(=O)c1ccc(Cn2ncc3cc(/C=C4\SC(N5CCNC(=O)C5)=NC4=O)ccc32)c(Cl)c1` [Compound 18, 4-{5-[1-(2-Chloro-4-methanesulfonyl-benzyl)-1H-indazol-5-ylmethylene]-4-oxo-4,5-dihydro-thiazol-2-yl}-piperazin-2-one], > 4000 nM.
On to `CS(=O)(=O)c1ccc(Cn2ncc3cc(/C=C4\SC(N5CCN(CCO)CC5)=NC4=O)ccc32)c(Cl)c1` [Compound 19, 5-[1-(2-Chloro-4-methanesulfonyl-benzyl)-1H-indazol-5-ylmethylene]-2-[4-(2-hydroxy-ethyl)-piperazin-1-yl]-thiazol-4-one], for which the EC50 turned out to be 350 nM. In other words, the sub-micromolar range.

The term EC50 denotes the concentration giving half of the maximal effect.

Source of the values: US8399681B2, “Substituted aminothiazolone indazoles as estrogen related receptor-alpha modulators” (Janssen Pharmaceutica NV, priority 2009, dated 2013).
